Square brackets hold non-standard residues; d marks the D form. Peptide text beside a SMILES is read from it. * marks the point of attachment. pNA = O=[N+]([O-])c1ccc(N*)cc1; pGlu = O=C1CC[C@@H](C(=O)O)N1
What was measured:
Format in all cases: biochemical
Settings in all cases: substrate solution 2 mmol/l (100 μl in 1 ml), tris buffer 50 mmol/l pH 8.0, 37° C.; pNA measured at 405 nm, Blue 49 at 623 nm
[1] = target: protein C (Homo sapiens, UniProt P04070); assay: Substrate testing: cleavage of chromogenic substrate by protein C
Chain of protein C (P04070 212-461 limits assumed): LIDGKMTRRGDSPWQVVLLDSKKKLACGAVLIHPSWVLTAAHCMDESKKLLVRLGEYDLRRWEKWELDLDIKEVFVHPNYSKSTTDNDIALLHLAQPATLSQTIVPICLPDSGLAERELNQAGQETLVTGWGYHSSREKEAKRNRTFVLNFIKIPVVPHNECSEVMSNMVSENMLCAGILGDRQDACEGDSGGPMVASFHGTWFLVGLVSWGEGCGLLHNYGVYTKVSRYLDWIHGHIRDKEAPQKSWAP
Chain of protein C (P04070 43-197 partner limits assumed): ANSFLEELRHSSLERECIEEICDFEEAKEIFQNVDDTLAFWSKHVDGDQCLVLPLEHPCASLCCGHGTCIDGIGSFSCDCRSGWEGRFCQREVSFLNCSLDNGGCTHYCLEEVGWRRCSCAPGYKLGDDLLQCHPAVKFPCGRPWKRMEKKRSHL
Description: (§1) 100 μl of the enzyme solution were added to a 800 μl of buffer solution (trishydroxyaminomethane, 50 mmol/l), pH 8.0, at 37° C., and 100 μl of 2 mmol/l of substrate solution were added. pNA cleaved off was measured at 405 nm, and Blue 49 or Blue 124 was measured at 623 nm. The cleavage rates were determined in OD/minute. The relative cleavage raten, and thus the specificities of some substrates and enzymes, can be seen from Table II.

[2] = system: kallikrein; assay: Substrate testing: cleavage of chromogenic substrate by kallikrein
Description: as §1

[3] = target: plasmin (Homo sapiens, UniProt P00747); assay: Substrate testing: cleavage of chromogenic substrate by plasmin
Chain of plasmin (P00747 581-810 limits assumed, species assumed): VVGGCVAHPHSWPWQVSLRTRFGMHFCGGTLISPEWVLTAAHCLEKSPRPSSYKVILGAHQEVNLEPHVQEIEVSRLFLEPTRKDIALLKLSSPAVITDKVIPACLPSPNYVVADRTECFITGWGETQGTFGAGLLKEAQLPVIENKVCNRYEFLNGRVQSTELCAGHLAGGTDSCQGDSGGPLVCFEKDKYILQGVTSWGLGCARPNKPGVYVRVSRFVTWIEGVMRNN
Chain of plasmin (P00747 97-580 partner limits assumed, species assumed): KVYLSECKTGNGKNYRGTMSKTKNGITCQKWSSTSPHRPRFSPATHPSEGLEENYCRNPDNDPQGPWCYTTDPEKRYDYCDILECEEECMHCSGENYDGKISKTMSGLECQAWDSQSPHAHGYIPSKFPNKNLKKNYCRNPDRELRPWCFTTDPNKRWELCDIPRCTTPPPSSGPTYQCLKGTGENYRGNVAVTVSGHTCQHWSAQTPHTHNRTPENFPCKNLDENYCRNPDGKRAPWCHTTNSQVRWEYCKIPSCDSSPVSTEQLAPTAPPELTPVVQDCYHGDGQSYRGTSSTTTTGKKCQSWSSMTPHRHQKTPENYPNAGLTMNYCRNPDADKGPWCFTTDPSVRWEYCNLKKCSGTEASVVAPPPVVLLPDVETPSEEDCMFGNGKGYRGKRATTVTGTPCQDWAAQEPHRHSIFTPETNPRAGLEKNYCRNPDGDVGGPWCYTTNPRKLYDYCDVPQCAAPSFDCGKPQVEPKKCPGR
Description: as §1

[4] = target: F Xa (Homo sapiens, UniProt P00742); assay: Substrate testing: cleavage of chromogenic substrate by F Xa
Chain of F Xa (P00742 235-488 limits assumed): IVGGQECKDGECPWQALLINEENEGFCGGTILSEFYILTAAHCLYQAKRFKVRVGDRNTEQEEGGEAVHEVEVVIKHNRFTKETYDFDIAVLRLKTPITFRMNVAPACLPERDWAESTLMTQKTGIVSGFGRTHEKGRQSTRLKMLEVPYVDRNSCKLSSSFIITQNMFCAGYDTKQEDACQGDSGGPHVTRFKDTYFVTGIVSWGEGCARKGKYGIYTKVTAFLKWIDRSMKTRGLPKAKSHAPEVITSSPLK
Chain of F Xa (P00742 41-179 partner limits assumed): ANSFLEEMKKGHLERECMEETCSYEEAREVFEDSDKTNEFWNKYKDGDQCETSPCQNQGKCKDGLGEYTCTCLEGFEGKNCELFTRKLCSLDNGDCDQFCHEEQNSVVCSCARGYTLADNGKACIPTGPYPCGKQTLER
Description: as §1

[5] = target: thrombin (Homo sapiens, UniProt P00734); assay: Substrate testing: cleavage of chromogenic substrate by thrombin
Description: as §1

[6] = target: urokinase (Homo sapiens, UniProt P00749); assay: Substrate testing: cleavage of chromogenic substrate by urokinase
Description: as §1

| Molecule | cleavage rate, protein C [1] [OD/minute] | cleavage rate, kallikrein [2] [OD/minute] | cleavage rate, plasmin [3] [OD/minute] | cleavage rate, F Xa [4] [OD/minute] | cleavage rate, thrombin [5] [OD/minute] | cleavage rate, urokinase [6] |
| --- | --- | --- | --- | --- | --- | --- |
| 7-(D-phenylalanyl-L-prolyl-L-arginylamino)-3-diethylamino-8-methylphenoxazo nium triacetate [H--D--Phe--Pro--Arg--Blue 49] | 0.03 | 0.00 | 0.00 | 0.01 | 0.395 | – |
| N=C(N)NCCC[C@H](NC(=O)[C@@H]1CCCCN1C(=O)[C@H](N)Cc1ccccc1)C(=O)Nc1ccc([N+](=O)[O-])cc1 [H--D--Phe--Pip--Arg--pNA, reference compound] | 0.075 | 0.11 | 0.035 | 0.025 | 0.41 | – |
| N=C(N)NCCC[C@H](NC(=O)CNC(=O)[C@@H]1CCC(=O)N1)C(=O)Nc1ccc([N+](=O)[O-])cc1 [pyro--Glu--Gly--Arg--pNA, reference compound] ([pGlu]-Gly-Arg-pNA) | 0.30 | 0.01 | 0.01 | 0.01 | 0.00 | – |
| N=C(N)NCCC[C@H](NC(=O)[C@@H]1CCCN1C(=O)[C@@H]1CCC(=O)N1)C(=O)Nc1ccc([N+](=O)[O-])cc1 [pyro--Glu--Pro--Arg--pNA, reference compound] ([pGlu]-Pro-Arg-pNA) | 0.40 | 0.51 | 0.53 | 0.04 | 0.41 | – |
| D--Leu--Pro--Arg--Blue 49 [H--D--Leu--Pro--Arg--Blue 49] | 0.47 | 0.015 | 0.015 | 0.035 | 0.09 | – |
| Tos--Gly--Pro--Arg--Blue 49 | 0.76 | 0.02 | 0.02 | 0.095 | 0.15 | – |
| pyro--Glu--Pro--Arg--Blue 49 | 0.22 | 0.015 | 0.03 | 0.02 | 0.015 | 1,0 OD/minute |

Source: patent US5097014A, “Chromogenic tripeptides” (Behringwerke Aktiengesellschaft, priority 1986, dated 1992)
